Measurements reported in patent US6114334A, “Piperazine derivatives as therapeutic agents” (Knoll Aktiengesellschaft, priority 1995, dated 2000).

Columns and labels:
α1-adrenoceptors = assay: inhibition of 7-methoxy-[3H]prazosin binding to α1-adrenoceptors in vitro; parameters: species or system rat (male Charles River CD, whole cortical tissue); details: rat whole cortex, 30 min; for Ki: 7-methoxy-[3H]prazosin 0.1 nM, 30° C.
Method: Whole cortical tissue from the brains of male Charles River CD rats weighing between 150-250 g were homogenised in ice-cold 50 mM Tris-HCl, pH 7.6 (at 25° C.; 1:40 w/v) and centrifuged at 1000 g at 4° C. for 10 minutes. The supernatant was centrifuged at 30,000 g at 4° C. for 10 minutes. The pellet was rehomogenised in 50 mM Tris-HCl, pH 7.6 (1:40 w/v) and centrifuged at 30,000 g at 4° C. for 10 minutes. The final pellet was resuspended in 50 mM Tris-HCl, pH 7.6 (equivalent to 12.5 mg wet weight of tissue/ml) and used immediately in the binding assay. Aliquots (400 μl; equivalent to 5 mg wet weight of tissue/tube) of this suspension were added to tubes containing the ligand (50 μl; 0.1 nM) and distilled water (50 μl; total binding) or phentolamine (50 μl; 5 μM; non-specific binding) or test compound (50 μl; at a single concentration of 10^-6 M or at 10 concentrations ranging from 10^-11 -10^-3 M). The ligand was 7-methoxy-[^3 H]prazosin and the mixture was incubated at 30° C. for 30 minutes before the incubation was terminated by rapid filtration. The filters were washed with ice-cold Tris-HCl buffer and dried. The filters were punched out into vials, scintillation fluid added and radioactivity determined by liquid scintillation counting. The percentage displacement of specific binding of the tritiated ligand was calculated for the single concentration (10^-6 M) of test compound. […] The concentration which gave 50% inhibition of specific binding (IC50) was obtained from the curve. The inhibition coefficient Ki was then calculated using the formula [formula] in which [ligand] is the concentration of the tritiated ligand used and KD is the equilibrium dissociation constant for the ligand.

α2D-adrenoceptors = target: T1, α2D-adrenoceptors (Rattus norvegicus, UniProt P22909); assay: inhibition of tritiated idazoxan binding to α2D-adrenoceptors in vitro; parameters: species or system rat (male Charles River CD, frontal cortical tissue); details: rat frontal cortex; for Ki: [3H]idazoxan 1 nM, 0° C., 75 min
T1 sequence (P22909 1-465): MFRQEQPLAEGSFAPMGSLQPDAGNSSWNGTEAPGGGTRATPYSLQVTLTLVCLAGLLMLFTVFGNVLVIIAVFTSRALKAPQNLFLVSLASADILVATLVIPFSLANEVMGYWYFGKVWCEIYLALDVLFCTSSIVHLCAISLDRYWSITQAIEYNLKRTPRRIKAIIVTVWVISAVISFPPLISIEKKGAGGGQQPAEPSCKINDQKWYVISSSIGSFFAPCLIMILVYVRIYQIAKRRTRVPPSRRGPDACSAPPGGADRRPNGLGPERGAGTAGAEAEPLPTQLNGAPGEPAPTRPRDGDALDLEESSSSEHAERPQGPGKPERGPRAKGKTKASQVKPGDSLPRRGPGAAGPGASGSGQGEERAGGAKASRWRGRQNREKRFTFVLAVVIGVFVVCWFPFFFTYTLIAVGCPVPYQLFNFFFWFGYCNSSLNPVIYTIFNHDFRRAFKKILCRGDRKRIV

D2 dopamine receptors = D2 dopamine receptors (Rattus norvegicus, UniProt P61169); assay: inhibition of tritiated (S)-sulpiride binding to D2 dopamine receptors in vitro; parameters: species or system rat (male Charles River CD, striatal tissue); details: rat striatum; for Ki: tritiated (S)-sulpiride 1 nM, 4° C., 40 min
5-HT1A receptors = target: T2, 5-HT1A receptors (Rattus norvegicus, UniProt P19327); assay: inhibition of [3H]8-OH-DPAT binding to 5-HT1A receptors in vitro; parameters: species or system rat (male Sprague-Dawley, hippocampal tissue); details: rat hippocampus; for Ki: [3H]8-OH-DPAT 2 nM, 25° C., 30 min; for inhibition at 1 µM: 10^-6 M, [3H]8-OH-DPAT, read-out: % displacement at 10^-6 M, 5-HT1A
T2 sequence (P19327 1-422): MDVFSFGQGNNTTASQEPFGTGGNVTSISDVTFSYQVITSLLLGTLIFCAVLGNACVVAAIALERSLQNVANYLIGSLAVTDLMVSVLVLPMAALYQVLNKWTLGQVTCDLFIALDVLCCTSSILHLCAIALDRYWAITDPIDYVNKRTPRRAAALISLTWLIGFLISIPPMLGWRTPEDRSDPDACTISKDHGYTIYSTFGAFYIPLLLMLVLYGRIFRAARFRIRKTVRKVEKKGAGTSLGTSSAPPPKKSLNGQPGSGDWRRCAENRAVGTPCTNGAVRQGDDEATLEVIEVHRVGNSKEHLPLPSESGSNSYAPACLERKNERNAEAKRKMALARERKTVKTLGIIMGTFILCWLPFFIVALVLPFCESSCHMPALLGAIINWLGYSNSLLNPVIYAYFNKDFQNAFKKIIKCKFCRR
Method: Hippocampal tissue from the brains of male Sprague-Dawley rats (Charles River; weight range 150-250 g) was homogenised in ice-cold 50 mM Tris-HCl buffer (pH 7.7 when measured at 25° C., 1:40 w/v) and centrifuged at 30,000 g at 4° C. for 10 minutes. The pellet was rehomogenised in the same buffer, incubated at 37° C. for 10 minutes and centrifuged at 30,000 g at 4° C. for 10 minutes. The final pellet was resuspended in 50 mM Tris-HCl buffer (pH 7.7) containing 4 mM CaCl2. 0.1% L-ascorbic acid and 10 μM pargyline hydrochloride (equivalent to 6.25 mg wet weight of tissue/ml) and used immediately in the binding assay. Aliquots (400 μl; equivalent to 2.5 mg wet weight of tissue/tube) of this suspension were added to tubes containing the ligand (50 μl; 2 nM) and distilled water (50 μl; total binding) or 5-HT (50 μl; 10 μM; non-specific binding) or test compound (50 μl; at a single concentration of 10^-6 M or at 10 concentrations ranging from 10^-11 -10^-3 M). The ligand was [^3 H]8-hydroxy-2-(dipropylamino)tetralin ([^3 H]8-OH-DPAT) and the mixture was incubated at 25° C. for 30 minutes before the incubation was terminated by rapid filtration.
The filters were washed with ice-cold Tris-HCl buffer and dried. The filters were punched out into vials, scintillation fluid added and radioactivity determined by liquid scintillation counting. The percentage displacement of specific binding of the tritiated ligand was calculated for the single concentration (10^-6 M) of test compound. Displacement curves were then produced for those compounds which displaced ≥50% of specific binding of the tritiated ligand at 10^-6 M using a range of concentrations of the compound. The concentration which gave 50% inhibition of specific binding (IC50) was obtained from the curve. The inhibition coefficient Ki was then calculated using the formula [formula] in which [ligand] is the concentration of the tritiated ligand used and KD is the equilibrium dissociation constant for the ligand.

D2 dopamine receptors, sequence (P61169 whole entry): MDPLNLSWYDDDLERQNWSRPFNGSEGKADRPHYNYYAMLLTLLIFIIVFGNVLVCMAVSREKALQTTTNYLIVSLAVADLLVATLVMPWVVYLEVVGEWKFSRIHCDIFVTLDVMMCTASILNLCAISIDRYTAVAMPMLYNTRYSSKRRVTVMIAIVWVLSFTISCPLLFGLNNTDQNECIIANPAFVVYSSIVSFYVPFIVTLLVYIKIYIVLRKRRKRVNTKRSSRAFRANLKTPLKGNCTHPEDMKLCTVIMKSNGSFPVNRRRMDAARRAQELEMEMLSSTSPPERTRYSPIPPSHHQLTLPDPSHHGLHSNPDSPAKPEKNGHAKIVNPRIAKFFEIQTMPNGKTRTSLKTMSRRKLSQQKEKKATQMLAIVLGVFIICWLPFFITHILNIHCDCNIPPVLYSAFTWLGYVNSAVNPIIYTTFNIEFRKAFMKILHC

SMILES | Ki (α1-adrenoceptors) | Ki (α2D-adrenoceptors) | Ki (D2 dopamine receptors) | Ki (5-HT1A receptors) | inhibition at 1 µM (5-HT1A receptors) | inhibition at 1 µM (D2 dopamine receptors; 10^-6 M, tritiated (S)-sulpiride, read-out: % displacement at 10^-6 M, D2) | % displacement at 10^-6 M, α1 (α1-adrenoceptors; 10^-6 M, 7-methoxy-[3H]prazosin, 1 µM) | inhibition at 1 µM (α2D-adrenoceptors; 10^-6 M, [3H]idazoxan, read-out: % displacement at 10^-6 M, α2D)
COc1ccccc1N1CCN(Cc2c(N)n(C)n(-c3ccccc3)c2=O)CC1 [Example 1, 3-amino-4-[4-(2-methoxyphenyl)piperazin-1-ylmethyl]-2-methyl-1-phenyl-3-pyrazolin-5-one] | 23 nM | 130 nM | 192 nM | 169 nM | – | – | – | –
COc1ccccc1N1CCN(Cc2c(C3CC3)nn(-c3ccccc3)c2N)CC1 [Example 9, 5-amino-3-cyclopropyl-4-[4-(2-methoxyphenyl)piperazin-1-ylmethyl]-1-phenylpyrazole] | 9 nM | 81 nM | 374 nM | 49 nM | – | – | – | –
Nc1c(CN2CCN(c3cccc(C(F)(F)F)c3)CC2)c(C2CC2)nn1-c1ccccc1 [Example 15, 5-Amino-3-cyclopropyl-1-phenyl-4-{4-[3-(trifluoromethyl)phenyl]piperazin-1-ylmethyl}pyrazole] | > 500 nM | > 500 nM | 337 nM | – | 67% | – | – | –
C=CCN1C(=O)C(C)(CN2CCN(c3ccccc3OC)CC2)N=C1c1cccnc1 (centres unmarked) [Example 39, 1-allyl-4-[4-(2-methoxyphenyl)piperazin-1-ylmethyl]-4-methyl-2-(3-pyridyl)-2-imidazolin-5-one] | > 500 nM | 115 nM | – | 101 nM | – | 72% | – | –
C=CCn1c(-c2cccnc2)nn(CN2CCN(c3cccc4c3OCCO4)CC2)c1=S [Example 45, 4-allyl-2-[4-(1,4-benzodioxan-5-yl)piperazin-1-ylmethyl]-5-(3-pyridyl)-1,2,4-triazole-3(2H,4H)-thione] | > 500 nM | 225 nM | 322 nM | 31 nM | – | – | – | –
C=CCn1c(-c2cccnc2)nn(CCCCN2CCN(c3ccccc3OC)CC2)c1=O [Example 46, 4-allyl-2-{4-[4-(2-methoxyphenyl)piperazin-1-yl]butyl}-5-(3-pyridyl)-1,2,4-triazol-3(2H,4H)-one] | 16 nM | > 500 nM | 48 nM | 64 nM | – | – | – | –
C=CCn1c(-c2cccnc2)nn(CN2CCN(c3ccccc3OC)CC2)c1=S [Example 47, 4-Allyl-2-[4-(2-methoxyphenyl)piperazin-1-ylmethyl]-5-(3-pyridyl)-1,2,4-triazole-3(2H,4H)-thione] | > 500 nM | 178 nM | 262 nM | 152 nM | – | – | – | –
COc1ccccc1N1CCN(Cn2nc(-c3ccc(Cl)cc3)n(-c3cccnc3)c2=S)CC1 [Example 48, 5-(4-Chlorophenyl)-2-[4-(2-methoxyphenyl)piperazin-1-ylmethyl]-4-(3-pyridyl)-1,2,4-triazole-3(2H,4H)-thione] | 430 nM | 71 nM | 200 nM | 108 nM | – | – | – | –
C=CCn1c(-c2ccncc2)nn(CN2CCN(c3ccccc3OC)CC2)c1=S [Example 49, 4-Allyl-2-[4-(2-methoxyphenyl)piperazin-1-ylmethyl]-5-(4-pyridyl)-1,2,4-triazole-3(2H,4H)-thione] | > 500 nM | 146 nM | 121 nM | 123 nM | – | – | – | –
COCCCn1c(-c2ccncc2)nn(CN2CCN(c3ccccc3OC)CC2)c1=S [Example 50, 2-[4-(2-Methoxyphenyl)piperazin-1-ylmethyl]-4-(3-methoxypropyl)-5-(4-pyridyl)-1,2,4-triazole-3(2H,4H)-thione] | > 500 nM | 194 nM | 192 nM | 170 nM | – | – | – | –
COc1ccccc1N1CCN(Cn2nc(-c3ccncc3)n(C)c2=S)CC1 [Example 51, 2-[4-(2-Methoxyphenyl)piperazin-1-ylmethyl]-4-methyl-5-(4-pyridyl)-1,2,4-triazole-3(2H,4H)-thione] | – | > 500 nM | 134 nM | – | 54% | – | 53% | –
C=CCn1c(-c2ccccc2)nn(CN2CCN(c3ccccc3OC)CC2)c1=S [Example 52, 4-Allyl-2-[4-(2-methoxyphenyl)piperazin-1-ylmethyl]-5-phenyl-1,2,4-triazole-3(2H,4H)-thione] | > 500 nM | 148 nM | 222 nM | 150 nM | – | – | – | –
CCCn1c(-c2ccncc2)nn(CN2CCN(c3ccccc3OC)CC2)c1=S [Example 53, 2-[4-(2-Methoxyphenyl)piperazin-1-ylmethyl]-4-propyl-5-(4-pyridyl)-1,2,4-triazole-3(2H,4H)-thione] | > 500 nM | 150 nM | 274 nM | 117 nM | – | – | – | –
COc1ccccc1N1CCN(Cn2nc(C(F)(F)F)n(C)c2=S)CC1 [Example 54, 2-[4-(2-Methoxyphenyl)piperazin-1-ylmethyl]-4-methyl-5-(trifluoromethyl)-1,2,4-triazole-3(2H,4H)-thione] | 477 nM | 218 nM | 243 nM | 135 nM | – | – | – | –
COc1ccccc1N1CCN(Cn2ncn(C)c2=S)CC1 [Example 55, 2-[4-(2-Methoxyphenyl)piperazin-1-ylmethyl]-4-methyl-1,2,4-triazole-3(2H,4H)-thione] | 358 nM | 194 nM | 73 nM | 108 nM | – | – | – | –
C=CCn1c(-c2ccco2)nn(CN2CCN(c3ccccc3OC)CC2)c1=S [Example 56, 4-Allyl-5-(2-furyl)-2-[4-(2-methoxyphenyl)piperazin-1-ylmethyl]-1,2,4-triazole-3(2H,4H)-thione] | 401 nM | 197 nM | 158 nM | 105 nM | – | – | – | –
C=CCn1c(-c2cccnc2)nn(CN2CCN(c3ncccn3)CC2)c1=S [Example 57, 4-Allyl-5-(3-pyridyl)-2-[4-(pyrimidin-2-yl)piperazin-1-ylmethyl]-1,2,4-triazole-3(2H,4H)-thione] | > 500 nM | – | > 500 nM | > 500 nM | – | – | – | 95%
C=CCn1c(-c2ccccn2)nn(CN2CCN(c3ccccc3OC)CC2)c1=S [Example 58, 4-Allyl-2-[4-(2-methoxyphenyl)piperazin-1-ylmethyl]-5-(2-pyridyl)-1,2,4-triazole-3(2H,4H)-thione] | 301 nM | 104 nM | 173 nM | 126 nM | – | – | – | –
C=CCn1c(C)nn(CN2CCN(c3ccccc3OC)CC2)c1=S [Example 59, 4-Allyl-2-[4-(2-methoxyphenyl)piperazin-1-ylmethyl]-5-methyl-1,2,4-triazole-3(2H,4H)-thione] | 497 nM | 255 nM | 306 nM | 119 nM | – | – | – | –
C=CCn1c(-c2cccs2)nn(CN2CCN(c3ccccc3OC)CC2)c1=S [Example 60, 4-Allyl-2-[4-(2-methoxyphenyl)piperazin-1-ylmethyl]-5-(2-thienyl)-1,2,4-triazole-3(2H,4H)-thione] | 159 nM | 82 nM | 155 nM | 138 nM | – | – | – | –
